Test results as given in PubChem BioAssay (NCI).
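Growth conditions: 96-well plates. Treatment: test compound, 48 hours, 5 concentrations. Analysis: linear interpolation between bracketing concentrations; unreached endpoints set to highest concentration. Definition used: TGI = concentration required for complete inhibition of growth.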

Key:
Experiment in all cases: inhibition of tumour cell growth, NCI panel, 48 h
HCT-116 colon = system: HCT-116 colon
OVCAR-3 ovarian = system: OVCAR-3 ovarian
SK-MEL-5 melanoma = system: SK-MEL-5 melanoma
HOP-92 NSCLC = system: HOP-92 NSCLC
NCI-H23 lung = system: NCI-H23 lung
SK-OV-3 ovarian = system: SK-OV-3 ovarian
KM12 colon = system: KM12 colon
HCC-2998 colon = system: HCC-2998 colon
NCI-H522 lung = system: NCI-H522 lung
CCRF-CEM leukemia = system: CCRF-CEM leukemia
SN12C renal = system: SN12C renal
MDA-MB-435 = system: MDA-MB-435
MCF7 breast = system: MCF7 breast
NCI-H460 lung = system: NCI-H460 lung
SF-295 CNS = system: SF-295 CNS
SK-MEL-28 melanoma = system: SK-MEL-28 melanoma
EKVX NSCLC = system: EKVX NSCLC
786-0 renal = system: 786-0 renal
UACC-62 melanoma = system: UACC-62 melanoma
MDA-MB-231 breast = system: MDA-MB-231 breast
HCT-15 colon = system: HCT-15 colon
RXF 393 renal = system: RXF 393 renal
SF-539 CNS = system: SF-539 CNS
UACC-257 melanoma = system: UACC-257 melanoma
SK-MEL-2 melanoma = system: SK-MEL-2 melanoma
HS 578T breast = system: HS 578T breast
HOP-62 NSCLC = system: HOP-62 NSCLC
MALME-3M melanoma = system: MALME-3M melanoma
M14 melanoma = system: M14 melanoma
CAKI-1 renal = system: CAKI-1 renal
NCI-H226 lung = system: NCI-H226 lung
RPMI-8226 leukemia = system: RPMI-8226 leukemia
K-562 leukemia = system: K-562 leukemia
SF-268 CNS = system: SF-268 CNS
OVCAR-8 ovarian = system: OVCAR-8 ovarian
NCI/ADR-RES ovarian = system: NCI/ADR-RES ovarian
OVCAR-5 ovarian = system: OVCAR-5 ovarian
MOLT-4 leukemia = system: MOLT-4 leukemia
ACHN renal = system: ACHN renal
U251 CNS = system: U251 CNS
IGROV1 ovarian = system: IGROV1 ovarian
OVCAR-4 ovarian = system: OVCAR-4 ovarian
SNB-19 CNS = system: SNB-19 CNS
SW-620 colon = system: SW-620 colon
HT29 colon = system: HT29 colon
MDA-N = system: MDA-N
COLO 205 colon = system: COLO 205 colon
A549 NSCLC = system: A549 NSCLC
HL-60(TB) leukemia = system: HL-60(TB) leukemia
LOX IMVI melanoma = system: LOX IMVI melanoma
T-47D breast = system: T-47D breast
BT-549 breast = system: BT-549 breast
PC-3 prostate = system: PC-3 prostate

`COc1ccc(C2SC(N)=Nc3c2c(C)nn3C(=O)c2ccccc2O)cc1` (stereo not drawn) was tested, and the TGI (HCT-116 colon) was over 10 µM, the TGI (OVCAR-3 ovarian) was 7.48 µM and the TGI (SK-MEL-5 melanoma) was over 10 µM. For the same molecule, the TGI (HOP-92 NSCLC) was over 10 µM, the TGI (NCI-H23 lung) was over 10 µM and the TGI (SK-OV-3 ovarian) was over 10 µM. The TGI (KM12 colon) was over 10 µM, the TGI (HCC-2998 colon) was over 10 µM and the TGI (NCI-H522 lung) was over 10 µM. It also gave a TGI (CCRF-CEM leukemia) of over 10 µM, a TGI (SN12C renal) of over 10 µM and a TGI (MDA-MB-435) of over 10 µM. For the same molecule, the TGI (MCF7 breast) was over 10 µM, the TGI (NCI-H460 lung) was over 10 µM and the TGI (SF-295 CNS) was over 10 µM. It also gave a TGI (SK-MEL-28 melanoma) of over 10 µM, a TGI (EKVX NSCLC) of over 10 µM and a TGI (786-0 renal) of over 10 µM. The TGI (UACC-62 melanoma) was over 10 µM, the TGI (MDA-MB-231 breast) was 9.79 µM and the TGI (HCT-15 colon) was over 10 µM. For the same molecule, the TGI (RXF 393 renal) was over 10 µM, the TGI (SF-539 CNS) was 0.628 µM and the TGI (UACC-257 melanoma) was over 10 µM. The TGI (SK-MEL-2 melanoma) was over 10 µM, the TGI (HS 578T breast) was over 10 µM and the TGI (HOP-62 NSCLC) was over 10 µM. For the same molecule, the TGI (MALME-3M melanoma) was over 10 µM, the TGI (M14 melanoma) was over 10 µM and the TGI (CAKI-1 renal) was over 10 µM. The TGI (NCI-H226 lung) was over 10 µM, the TGI (RPMI-8226 leukemia) was 6.99 µM and the TGI (K-562 leukemia) was 3.85 µM. The TGI (SF-268 CNS) was over 10 µM, the TGI (OVCAR-8 ovarian) was over 10 µM and the TGI (NCI/ADR-RES ovarian) was over 10 µM. It also gave a TGI (OVCAR-5 ovarian) of over 10 µM, a TGI (MOLT-4 leukemia) of over 10 µM and a TGI (ACHN renal) of over 10 µM. The TGI (U251 CNS) was over 10 µM, the TGI (IGROV1 ovarian) was over 10 µM and the TGI (OVCAR-4 ovarian) was over 10 µM. It also gave a TGI (SNB-19 CNS) of over 10 µM, a TGI (SW-620 colon) of over 10 µM and a TGI (HT29 colon) of over 10 µM. The TGI (MDA-N) was over 10 µM, the TGI (COLO 205 colon) was over 10 µM and the TGI (A549 NSCLC) was over 10 µM. For the same molecule, the TGI (HL-60(TB) leukemia) was 5.21 µM, the TGI (LOX IMVI melanoma) was over 10 µM and the TGI (T-47D breast) was over 10 µM. For the same molecule, the TGI (BT-549 breast) was over 10 µM and the TGI (PC-3 prostate) was over 10 µM.
